Test results as given in patent publication US6551772B1, “Model for viral infection and immune response” (AntiCancer, Inc., priority 1996, dated 2003).

Test system: human tonsil histocultures
Assay type: cell-based
Details: for donors whose tissue responded by producing antigen-specific antibodies: antigen added to medium for 2 days, responding donors out of donors tested; for dose dependence of specific IgG response: antigen in the range of 10-100 ng/ml; for induction of antibody against the other antigen and effect on total IgG production: challenge by either TT or DT

Substance | donors whose tissue responded by producing antigen-specific antibodies | dose dependence of specific IgG response | induction of antibody against the other antigen and effect on total IgG production | absolute amount of anti-TT IgG in medium (varied from tissue to tissue)
tetanus toxoid | 42 out of 55 | dose-dependent | did not induce the production of antibody against the other antigen nor did it increase total IgG production | hundreds to several thousands
diphtheria toxin [DT] | 17 of 24 | dose-dependent | did not induce the production of antibody against the other antigen nor did it increase total IgG production | –
